Data set [1] concerns cells carrying c-KIT D816V. The note with it: cited from earlier work.
Data set [2] relates to K562R cells (imatinib-resistant cell line). In words: tumor cell proliferation, MTT or CCK8 assay, 72 h incubation. The note with it: Homo sapiens, K-562R, read-out: IC50 on tumor cell proliferation, K562R cells. The data set is classed as cell-based. (Tetrazolium assays rely on reduction of a dye to a coloured formazan, in cell work by metabolically active cells.)
For data set [3], the target named is BAF3-T315I cells (Ba/F3 cell line stably expressing BCR/ABL T315I) (Homo sapiens, UniProt P00519, T315I, cells depend on it). The data set is described as above. The data set is classed as cell-based, mice. As to conditions: read-out: IC50 on tumor cell proliferation, BAF3-T315I cells; Ba/F3 expressing BCR/ABL T315I, 72 h, Table 1.
The test system of the next data set is U937 Cell line. Described as above. Type of data set: cell-based. The note with it: Homo sapiens, U-937, 72 h, read-out: IC50 on tumor cell proliferation, U937. The essentials: (§1)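 Leukemia cell lines were exposed to compounds at 1×10^−10˜1×10^−5M for 72 h. Proliferation was read by MTT (570 nm) or CCK8 (450/650 nm) after a further 4 h incubation. IC50 values were calculated from inhibition of proliferation.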

Data set [4] deals with L78 (Lung cancer cell line). The data set is described as above. Type of data set: cell-based. The note with it: Homo sapiens, read-out: IC50 on tumor cell proliferation, L78.
Data set [5] deals with MEG-01 (Human megakaryoblastic leukaemia cell line). The data set is described as above. The note with it: MEG-01, 72 h, read-out: IC50 on tumor cell proliferation, MEG-01. Type of data set: cell-based. The essentials:
as §1

Data set [6] has as its system K562 (human chronic myelogenous leukemia cell line). The data set is described as above. The data set is classed as cell-based. As to conditions: K562, 72 h, read-out: IC50 on tumor cell proliferation, K562. Put shortly: as §1
In data set [7] the test system is MOLT-4 (Human acute lymphoblastic leukemia cell line). Described as above. The data set is classed as cell-based. The note with it: MOLT-4, 72 h, read-out: IC50 on tumor cell proliferation, MOLT-4. Put shortly:
as §1

A short description of data set [8]: Pharmacokinetics and bioavailability in rats. The data set is classed as in vivo. As to conditions: SD rats; corresponding pharmaceutical acceptable salt forms. The essentials: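 Rats dosed, heparinized blood sampled at set times, plasma stored at -20 °C, acetonitrile-precipitated and analyzed by HPLC-MS. Compartmental and non-compartmental parameters derived; bioavailability from AUC.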

The next data set relates to BCR-ABL T315I mutant. As to conditions: cited from earlier work.

The values below come from US8846671B2, “Heterocyclic alkynyl benzene compounds and medical compositions and uses thereof” (Guangzhou Institute of Biomedicine and Health, Chinese …, priority 2010, dated 2014).

Entries after “also recorded” stand apart in the source; their conditions may differ. Structures can show the parent of a compound that is named as a salt.

For `Cc1ccc(NC(=O)c2ccc(CN3CCN(C)CC3)cc2)cc1Nc1nccc(-c2cccnc2)n1` [STI571, Imatinib mesylate], in [1], the “effect on cells with c-KIT D816V point mutation” value is listed as “cannot inhibit proliferation; also recorded: no effect”.
As for `CCNc1ncc(C#Cc2cc(C(=O)Nc3cc(-n4cnc(C)c4)cc(C(F)(F)F)c3)ccc2C)cn1` [D755, 3-(2-(2-(ethylamino)pyrimidin-5-yl)ethynyl)-4-methyl-N-(3-(4-methyl-1H-imidazol-1-yl)-5-(trifluoromethyl)phenyl)benzamide], the IC50 in data set [2] was 220 nM; in the data set on U937 Cell line, above 10000 nM; in [4], 11800 nM; in data set [5], above 10000 nM; in data set [6], 7.59 nM; in [7], above 10000 nM. Moreover, in data set [3], the GI50 stood at 61 nM. The “pharmacokinetics parameters, overall judgement” value in data set [8] was “adequate pharmacokinetics parameters”.
As to `Cc1cn(-c2cc(NC(=O)c3ccc(C)c(Nc4nccc(-c5cccnc5)n4)c3)cc(C(F)(F)F)c2)cn1` [AMN107, Nilotinib], the “effect on cells with c-KIT D816V point mutation” value in [1] is listed as “no effect”. The “effect on BCR-ABL T315I mutant” value with BCR-ABL T315I mutant was “neither AMN107 nor BMS-354825 have effect”.
